Laboratory results from patent US20070140979A1, “Method for accelerating the rate of mucociliary clearance” (BAYER AKTIENGESELLSCHAFT, priority 1998, published 2007).

Molecular target: Bovine chymotrypsin (Bos taurus, UniProt P00766)
Test: Inhibition of chymotrypsin, Ki
Format: biochemical
Details: Chymotrypsin (5 nM)

`CC[C@H](C)[C@H](N)C(=O)N[C@@H](Cc1c[nH]cn1)C(=O)N[C@@H](CC(=O)O)C(=O)N[C@@H](Cc1ccccc1)C(=O)N[C@H]1CSSC[C@@H](C(=O)N[C@@H](C)C(=O)N[C@H](C(=O)N[C@H](C(=O)O)C(C)C)[C@@H](C)O)NC(=O)[C@H](CCCCN)NC(=O)[C@H](CCCCN)NC(=O)[C@H](CC(C)C)NC(=O)[C@@H]2CSSC[C@@H]3NC(=O)[C@H](CO)NC(=O)CNC(=O)[C@H](CC(=O)O)NC(=O)[C@H]([C@@H](C)O)NC(=O)[C@H](C(C)C)NC(=O)[C@H](CC(N)=O)NC(=O)[C@H](Cc4ccc(O)cc4)NC(=O)[C@H](Cc4c[nH]c5ccccc45)NC(=O)[C@H](Cc4c[nH]c5ccccc45)NC(=O)[C@H](CCCNC(=N)N)NC(=O)[C@@H]4CCCN4C(=O)[C@H](CCSC)NC(=O)[C@H](CO)NC(=O)[C@H](C)NC(=O)[C@H](CCCNC(=N)N)NC(=O)[C@H](CSSC[C@H](NC(=O)CNC(=O)CNC(=O)[C@H](Cc4ccc(O)cc4)NC(=O)[C@H](C(C)C)NC(=O)[C@H](Cc4ccccc4)NC(=O)[C@H](CC(C)C)NC(=O)[C@H](CCC(N)=O)NC3=O)C(=O)N[C@@H](CC(=O)O)C(=O)NCC(=O)N[C@@H](CC(N)=O)C(=O)N[C@@H](CO)C(=O)N[C@@H](CC(N)=O)C(=O)N[C@@H](CC(N)=O)C(=O)N[C@@H](Cc3ccc(O)cc3)C(=O)N[C@@H](CC(C)C)C(=O)N[C@@H]([C@@H](C)O)C(=O)N[C@@H](CCCCN)C(=O)N[C@@H](CCC(=O)O)C(=O)N[C@@H](CCC(=O)O)C(=O)N2)NC(=O)[C@H](CCCNC(=N)N)NC(=O)CNC(=O)[C@H](C(C)C)NC(=O)[C@H](C(C)C)NC(=O)[C@H](CCCCN)NC(=O)[C@H](CO)NC(=O)[C@H](C(C)C)NC(=O)[C@H](CC(C)C)NC1=O` [bikunin (7-64)] was tested. Which Ki did it give?
Its Ki is 6 nM.
